Reference: patent US8198266B2, “Use of an EGFR antagonist for the treatment of glomerolonephritis” (INSERM (Institut National de la Sante et de la Recherche …, priority 2006, dated 2012)
“Also recorded” adds a separate entry of the source.

How the values were obtained:
[1] = test system: anti-GBM nephrotoxic serum-induced crescentic glomerulonephritis (RPGN) in mice; assay: Assessment of ascitis, renal function and albuminuria in accelerated anti-GBM crescentic glomerulonephritis; type: in vivo, mouse
Description: Assessment of […], renal function and albuminuria: […] Stage 2 to 4 were associated with clinically evident […] weight gain before sacrifice. Serum and urinary creatinine, and blood urea nitrogen (BUN) were quantified spectrophotometrically using a colorimetric method. Urinary albumin excretion was measured using a specific ELISA assay for quantitative determination of albumin inmouse urine (CellTrend GmbH).

[2] = test system: anti-GBM nephrotoxic serum-induced crescentic glomerulonephritis (RPGN) in mice; assay: Survival in accelerated anti-GBM crescentic glomerulonephritis; settings: AG1478-treated HB-EGF(+/+) mice
Description: Briefly, WT and HB-EGF−/− mice received subcutaneous injection with 200 μg normal sheep IgG (100 μl in each flank of normal sheep IgG (Sigma) diluted to 1 mg/ml in a solution of 50% freund complete adjuvent and 50% saline). Six days later (day 1), glomerulonephritis (GN) was induced by intravenous injection of 50 μl sheep anti-glomerular basement membrane (GBM) serum diluted to 7 mg/ml in saline. Serum injection was repeated twice (days 2 and 3), with serum dilution increased to 70 mg/ml. On days 0, 1, 2, 3, 5 and 7, mice received intraperitoneal injection of either AG1478 (LC Laboratories), a pharmacological inhibitor of EGFR tyrosine kinase activity (30 mg.kg-1.day-1 in 100 μl of a saline solution with 1% carboxymethylcellulose (CMC) and 10% DMSO), or 100 μl of saline solution with 1% CMC and 10% DMSO as control. On day 8, mice were sacrified after body weight measurement and 12 hours urines collection with metabolic cages. […] On day 14, mice were sacrified. Blood was obtained from mice by aortic catheterization. Kidneys from each mouse were processed for immunohistochemistry, protein and mRNA analysis, and the remaining half-kidney fixed in 10% neutral-buffered formalin for histological study.

[3] = test system: anti-GBM nephrotoxic serum-induced crescentic glomerulonephritis (RPGN) in mice; assay: Histopathology and immunohistochemistry (crescentic glomeruli, CD3 positive cells) in accelerated anti-GBM crescentic glomerulonephritis; type: in vivo, mouse
EGFR = biological target: T1, EGFR (Mus musculus, UniProt Q01279); assay: Phosphorylation of EGFR in renal cortex/glomeruli (western blot, immunofluorescence) during experimental RPGN; type: in vivo
T1 construct: Proteins were extracted from kidneys using a lysis buffer; from tissue; host or cells: mouse kidney (renal cortex, glomeruli); wild type and HB-EGF-/- mice on mixed C57BL/6J x 129 background
Description: On day 14, mice were sacrified.
For immunofluorescence in mouse tissues, cryostat sections of 4 μm were immediately fixed in acetone, washed in PBS and then incubated with antibodies in a humid incubator. Deposits of mouse IgG in kidney were evaluated using FITC rat anti-mouse IgG (FI2000, Vector) (1:100 dilution, incubation for 1 hour at room temperature).
Western blot analysis: Proteins were extracted from kidneys using a lysis buffer (Phosphosafe extraction buffer, Novagen) and quantified according to Bradford's method. […] Immunoblotting was performed using the rabbit anti phospho-EGFR (Cell Signaling) diluted 1:1,000 or a rabbit anti-EGFR diluted 1:5,000 (Cell Signaling) as control for lane loading. Then, horseradish peroxidase-linked donkey secondary antibody (Amersham Pharmacia Biotech) diluted 1:2,000 was added and revelation was subsequently made using ECL plus kit (Amersham Pharmacia Biotech) on autoradiography film, followed by densitometric analysis.

[4] = day 8, AG1478 30 mg/kg i.p., wild type mice, 30 mg/kg
[5] = day 14, erlotinib preventive (d0-14) or curative (d4-14) protocol

T1 sequence (Q01279 25-1210): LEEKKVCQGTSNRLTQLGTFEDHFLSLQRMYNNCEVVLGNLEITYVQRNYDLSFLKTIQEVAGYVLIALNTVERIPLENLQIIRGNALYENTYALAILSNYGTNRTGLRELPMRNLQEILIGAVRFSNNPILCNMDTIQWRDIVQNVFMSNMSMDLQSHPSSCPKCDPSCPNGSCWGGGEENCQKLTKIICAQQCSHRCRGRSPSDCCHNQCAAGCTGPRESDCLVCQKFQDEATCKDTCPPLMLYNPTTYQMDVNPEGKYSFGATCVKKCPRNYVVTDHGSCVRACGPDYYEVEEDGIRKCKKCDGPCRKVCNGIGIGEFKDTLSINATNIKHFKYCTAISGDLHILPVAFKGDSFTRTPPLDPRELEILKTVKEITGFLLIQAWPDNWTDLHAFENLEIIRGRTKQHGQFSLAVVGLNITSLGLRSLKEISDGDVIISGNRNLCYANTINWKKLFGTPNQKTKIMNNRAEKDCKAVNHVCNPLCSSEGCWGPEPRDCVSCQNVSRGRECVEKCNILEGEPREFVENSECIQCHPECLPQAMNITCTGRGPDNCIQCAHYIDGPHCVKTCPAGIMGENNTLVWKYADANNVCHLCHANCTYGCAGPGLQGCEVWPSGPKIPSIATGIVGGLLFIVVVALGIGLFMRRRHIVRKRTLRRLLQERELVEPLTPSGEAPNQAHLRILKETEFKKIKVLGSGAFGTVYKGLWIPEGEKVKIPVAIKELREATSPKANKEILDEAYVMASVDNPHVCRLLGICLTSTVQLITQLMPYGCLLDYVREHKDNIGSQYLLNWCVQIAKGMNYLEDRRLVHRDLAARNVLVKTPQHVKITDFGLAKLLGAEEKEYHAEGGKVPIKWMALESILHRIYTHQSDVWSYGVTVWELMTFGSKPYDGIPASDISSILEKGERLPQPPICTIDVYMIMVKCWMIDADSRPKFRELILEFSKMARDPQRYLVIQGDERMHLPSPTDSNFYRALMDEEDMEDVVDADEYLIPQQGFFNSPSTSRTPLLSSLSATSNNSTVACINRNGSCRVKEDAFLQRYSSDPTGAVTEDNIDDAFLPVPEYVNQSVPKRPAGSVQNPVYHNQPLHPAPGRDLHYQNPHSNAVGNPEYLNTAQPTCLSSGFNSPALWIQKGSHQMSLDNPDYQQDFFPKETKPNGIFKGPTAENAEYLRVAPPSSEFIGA

SMILES	incidence and severity of asciitis ([1]; day 8, AG1478 30 mg/kg i.p., vs vehicle)	albumin urinary leakage, renal function / renal failure (in words) ([1]; day 8, AG1478 30 mg/kg i.p., 30 mg/kg)	albuminuria ([1]; day 8, AG1478 30 mg/kg/day i.p., n=6) [g/mmol creatinine]	BUN ([1]; day 8, AG1478 30 mg/kg/day i.p., n=6, in mM)	death within 8 days of RPGN [2]	crescent formation / renal lesions (in words) [3, 4]	periglomerular and interstitial CD3+ cell infiltrates [3, 4]	% of crescentic glomeruli ([3]; day 8 after induction of RPGN, AG1478 30 mg/kg/day i.p., n=6) [%]	phosphorylation of EGFR (in words) (EGFR; AG1478 i.p. in wild type mice vs vehicle only, day 8)	pEGFR signal in glomeruli (immunofluorescence) (EGFR; day 8 post NTS, AG1478 30 mg/kg/day i.p.)	phosphorylation of EGFR blunted (fold) (EGFR; renal cortex, day 8 post NTS, AG1478 30 mg/kg/day i.p. vs vehicle)	pEFGR/EGFR ratio (EGFR; renal cortex, western blot, day 8 post NTS, AG1478 30 mg/kg/day i.p., wild type mice, n=6)	blood urea nitrogen ([1]; day 14, erlotinib 100 mg/kg/day per gavage, preventive, n=9) [mmol/L]	renal failure / blood urea nitrogen levels (in words) [1, 5]	necrotic glomerular lesions, cellular crescents, tubular proteinaceous casts and diffuse CD3 positive cells infiltrates ([3]; day 14, delayed erlotinib from day 4 to day 14, Masson trichrome staining)	proportion of crescentic glomeruli ([3]; day 14, erlotinib 100 mg/kg/day per gavage, preventive (12 hours prior to anti-GBM serum), n=9) [° A)]	development of glomerular injury (in words) [3, 5]
COc1cc2ncnc(Nc3cccc(Cl)c3)c2cc1OC [AG1478, 4-(3-Chloroanilino)-6,7-dimethoxyquinazoline]	lower incidence and severity of asciitis	prevents albumin urinary leakage and renal failure; also recorded: renal function was preserved	8.9±2.3	6.39±2.0	no AG1478-treated HB-EGF(+/+) mice died	reduces crescent formation; also recorded: dramatically reduced the development of renal lesions	reduces crescent formation and T cells infiltrates; also recorded: absent; also recorded: more effective in preventing cell infiltrate than HB-EGF deficiency	6.8±1.7	prevented the phosphorylation of EGFR	faint or no signal was detectable	~9	11 % of vehicle only-treated mice	–	–	–	–	–
C#Cc1cccc(Nc2ncnc3cc(OCCOC)c(OCCOC)cc23)c1.Cl [erlotinib, [6,7-bis(2-methoxyethoxy)-4-quinazolin-4-yl]-(3-ethynylphenyl)amine]	–	–	–	–	–	–	–	–	–	–	–	–	3.8 ± 0.4	prevented renal failure with normal blood urea nitrogen levels	blunted	25.0±6.9	blunted or stopped the development of glomerular injury
